According to patent publication US11976072B2, “Diacylglycerol kinase modulating compounds” (priority 2021, dated 2024):
pEC50, pIC50: −log10 of the molar value.

Assays:
human DGKα = human DGKα (Homo sapiens, UniProt P23743); test: DGKα Biochemical Activity Assay (ADP-Glo); conditions: recombinant DGKα 1 nM, 100 μM ATP, 18:1 DAG/POPS/octylglucoside micelles, 1 hour at 25° C.; geometric mean; read-out: HTBS DGKa 1X ATP KM IC50;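 also: luminescent detection of ADP produced as DGKα phosphorylates DAG to phosphatidic acid, IC50 from four-parameter nonlinear curve fit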
[1] = test system: Jurkat NFκB-luciferase cells; test: Jurkat NFκB-Luciferase Assay; type: cell-based; conditions: Homo sapiens; Jurkat NFκB-luciferase cells activated with anti-CD3 antibody (OKT3), 2.5 hrs at 37° C.; geometric mean; read-out: DGK NFKb Luciferase EC50
How it was run: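 Luminescence from One-Glo Ex, read 7 min post-addition, reports NFκB activation in Jurkat luciferase reporter cells. Cells, diluted to 1 million cells/ml in 10% FBS RPMI, were dispensed onto plates holding compound and washed, pre-bound antibody.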

Chain of human DGKα (P23743 whole entry): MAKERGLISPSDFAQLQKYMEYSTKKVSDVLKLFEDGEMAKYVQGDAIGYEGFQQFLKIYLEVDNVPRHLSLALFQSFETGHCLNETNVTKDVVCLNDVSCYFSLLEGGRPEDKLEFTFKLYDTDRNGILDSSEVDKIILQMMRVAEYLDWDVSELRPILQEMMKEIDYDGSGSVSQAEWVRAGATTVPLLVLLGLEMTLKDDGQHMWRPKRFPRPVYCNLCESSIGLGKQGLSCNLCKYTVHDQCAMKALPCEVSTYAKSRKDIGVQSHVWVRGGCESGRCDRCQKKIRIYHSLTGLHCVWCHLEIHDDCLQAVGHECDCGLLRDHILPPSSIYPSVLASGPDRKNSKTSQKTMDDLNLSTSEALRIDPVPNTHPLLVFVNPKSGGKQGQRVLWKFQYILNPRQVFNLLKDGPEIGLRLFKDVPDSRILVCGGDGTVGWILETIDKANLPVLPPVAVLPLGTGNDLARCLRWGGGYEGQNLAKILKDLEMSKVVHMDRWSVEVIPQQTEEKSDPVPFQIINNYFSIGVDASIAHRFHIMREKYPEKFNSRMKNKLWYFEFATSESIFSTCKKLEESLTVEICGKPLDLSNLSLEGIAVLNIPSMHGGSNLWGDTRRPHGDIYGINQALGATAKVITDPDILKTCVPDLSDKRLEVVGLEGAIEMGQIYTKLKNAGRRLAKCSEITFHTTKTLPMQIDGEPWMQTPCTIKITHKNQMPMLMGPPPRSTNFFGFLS

SMILES	pIC50 (human DGKα)	pEC50 [1]
CC(C)(C#Cc1cncc2c1CCCN2c1nc2nncn2c2ccc(F)c(F)c12)C(F)(F)F [Example 100, 6,7-difluoro-5-(5-(4,4,4-trifluoro-3,3-dimethylbut-1-yn-1-yl)-3,4-dihydro-1,7-naphthyridin-1(2H)-yl)-[1,2,4]triazolo[4,3-a]quinazoline]	8.21	9.91
CC(C)(C)C#Cc1cc(N(CC(F)F)c2nc3nncn3c3ccc(F)cc23)ccn1 [Example 101, N-(2,2-difluoroethyl)-N-(2-(3,3-dimethylbut-1-yn-1-yl)pyridin-4-yl)-7-fluoro-[1,2,4]triazolo[4,3-a]quinazolin-5-amine]	8.26	8.33
CC1(C#Cc2cc(N(CC(F)F)c3nc4nncn4c4ccc(F)cc34)ccn2)CC1 [Example 102, N-(2,2-difluoroethyl)-7-fluoro-N-(2-((1-methylcyclopropyl)ethynyl)pyridin-4-yl)-[1,2,4]triazolo[4,3-a]quinazolin-5-amine]	8.42	8.55
Fc1ccc2c(c1)c(N(CC(F)F)c1ccnc(C#CC3(C(F)(F)F)CC3)c1)nc1nncn12 [Example 103, N-(2,2-difluoroethyl)-7-fluoro-N-(2-((1-(trifluoromethyl)cyclopropyl)ethynyl)pyridin-4-yl)-[1,2,4]triazolo[4,3-a]quinazolin-5-amine]	8.29	8.64
Cc1nnc2nc(N(CC(F)F)c3cc(F)cc(C#CC(C)(C)O)c3)c3c(F)cc(Cl)cc3n12 [Example 104, 4-(3-((8-chloro-6-fluoro-1-methyl-[1,2,4]triazolo[4,3-a]quinazolin-5-yl)(2,2-difluoroethyl)amino)-5-fluorophenyl)-2-methylbut-3-yn-2-ol]	8.09	8.05
Cc1cc(F)cc2c(N(CC(F)F)c3cc(F)cc(C#CC(C)(C)O)c3)nc3nncn3c12 [Example 105]	7.51	7.57
Cc1cc(F)cc2c(N(CC(F)F)c3cc(F)cc(C#CC4(C(F)(F)F)CC4)c3)nc3nncn3c12 [Example 106]	6.93	8.60
CC(C)(O)C#Cc1cccc2c1CCCCN2c1nc2nncn2c2c(F)ccc(F)c12 [Example 110]	8.56	8.01
CC(C)(O)C#Cc1cccc2c1COCCN2c1nc2nncn2c2c(F)ccc(F)c12 [Example 111]	8.19	7.34
CC1(C#Cc2cccc3c2COCCN3c2nc3nncn3c3c(F)ccc(F)c23)CC1 [Example 113]	8.84	9.05
CC(C)(O)C#Cc1cc(F)cc2c1CCCN2c1nc2nncn2c2c(F)cc(F)cc12 [Example 114]	8.17	7.90
Cc1nnc2nc(N3CCCOc4c(C#CC5CC5)cccc43)c3c(F)c(F)ccc3n12 [Example 116]	8.28	8.97
CC1(C#Cc2cccc3c2CCCN3c2nc3nncn3c3c(F)ccc(F)c23)CC1 [Example 117]	7.83	8.88
Fc1cc(F)c2c(c1)c(N1CCCc3c(C#CC4(C(F)(F)F)CC4)cccc31)nc1nncn12 [Example 118]	8.31	8.24
Fc1cc(F)c2c(c1)c(N1CCCc3c(C#CC4(C(F)F)CC4)cccc31)nc1nncn12 [Example 119]	8.67	8.54
CC(C)(O)C#Cc1cccc2c1CCCN2c1nc2nncn2c2c(F)cc(F)cc12 [Example 120]	8.30	7.91
Fc1cccc2c1c(N1CCCOc3c(C#CC4(C(F)(F)F)CC4)cccc31)nc1nncn12 [Example 121]	7.64	8.31
CC(C)(C#Cc1cccc2c1OCCCN2c1nc2nncn2c2cccc(F)c12)C(F)(F)F [Example 123]	7.50	9.27
Cc1nnc2nc(N3CCCc4c(C#CC(C)(C)C#N)cccc43)c3c(Cl)cccc3n12 [Example 125, 4-(1-(6-chloro-1-methyl-[1,2,4]triazolo[4,3-a]quinazolin-5-yl)-1,2,3,4-tetrahydroquinolin-5-yl)-2,2-dimethylbut-3-ynenitrile]	7.78	8.54
Cc1nnc2nc(N(CC(F)F)c3cc(F)cc(-c4ccc(C(C)(C)O)cc4)c3)c3c(F)cccc3n12 [Example 128, 2-(3′-((2,2-difluoroethyl)(6-fluoro-1-methyl-[1,2,4]triazolo[4,3-a]quinazolin-5-yl)amino)-5′-fluoro-[1,1′-biphenyl]-4-yl)propan-2-ol]	7.68	8.13
Cc1nnc2nc(N3CCCc4c(C#CC5CCCCO5)cccc43)c3c(F)cccc3n12 (stereo not shown) [Example 129, 6-fluoro-1-methyl-5-(5-((tetrahydro-2H-pyran-2-yl)ethynyl)-3,4-dihydroquinolin-1(2H)-yl)-[1,2,4]triazolo[4,3-a]quinazoline]	8.12	8.91
Cc1nnc2nc(N3CCCc4c(C#CC5CC5)cccc43)c3c(F)c(F)ccc3n12 [Example 131, 5-[5-(2-cyclopropylethynyl)-3,4-dihydro-2H-quinolin-1-yl]-6,7-difluoro-1-methyl-[1,2,4]triazolo[4,3-a]quinazoline]	8.06	8.67

Continued, values first:

pIC50 (human DGKα)	pEC50 [1]	SMILES
7.40	8.49	Cc1cccc2c(N3CCOCc4c(C#CC5(C(C)(F)F)CC5)cccc43)nc3nncn3c12 [Example 107]
8.33	8.55	Cc1nnc2nc(N3CCOCc4c(C#CC5CC5)cccc43)c3cc(C#N)ccc3n12 [Example 108]
8.14	8.78	Cc1nnc2nc(N3CCOCc4c(C#CC5(C)CC5)cccc43)c3cc(C#N)ccc3n12 [Example 109]
8.46	9.15	Fc1ccc(F)c2c1c(N1CCOCc3c(C#CC4(C(F)(F)F)CC4)cccc31)nc1nncn12 [Example 112]
7.48	8.63	Cc1nnc2nc(N3CCCOc4c(C#CC5(C(C)(F)F)CC5)cccc43)c3c(F)c(F)ccc3n12 [Example 115]
8.28	8.58	Cc1nnc2nc(N3CCCOc4c(C#CC5(C)CC5)cccc43)c3c(F)c(F)ccc3n12 [Example 122]
7.77	9.11	CC(C)(C#Cc1cccc2c1COCCN2c1nc2nnc(N)n2c2cccc(F)c12)C(F)(F)F [Example 124, 6-fluoro-5-(6-(4,4,4-trifluoro-3,3-dimethylbut-1-yn-1-yl)-2,3-dihydrobenzo[e][1,4]oxazepin-1(5H)-yl)-[1,2,4]triazolo[4,3-a]quinazolin-1-amine]
7.77	8.93	Cc1nnc2nc(N3CCCc4c(C#CC5(C(F)F)CC5)cccc43)c3c(Cl)cccc3n12 [Example 126, 6-chloro-5-(5-((1-(difluoromethyl)cyclopropyl)ethynyl)-3,4-dihydroquinolin-1(2H)-yl)-1-methyl-[1,2,4]triazolo[4,3-a]quinazoline]
8.07	8.70	CC1(C#Cc2cccc3c2COCCN3c2nc3nnc(N)n3c3cccc(F)c23)CC1 [Example 127]
8.38	8.70	Cc1nnc2nc(N3CCCc4c(C#CC5CCCCO5)cccc43)c3cc(F)ccc3n12 (stereo not shown) [Example 130, 7-fluoro-1-methyl-5-(5-((tetrahydro-2H-pyran-2-yl)ethynyl)-3,4-dihydroquinolin-1(2H)-yl)-[1,2,4]triazolo[4,3-a]quinazoline]
8.51	8.18	Cc1nnc2nc(N3CCOCc4c3ccnc4C#CC3(C)CC3)c3cc(F)ccc3n12 [Example 132, 1-(7-fluoro-1-methyl-[1,2,4]triazolo[4,3-a]quinazolin-5-yl)-6-((1-methylcyclopropyl)ethynyl)-1,2,3,5-tetrahydropyrido[4,3-e][1,4]oxazepine]
7.82	8.25	Cc1nnc2nc(N3CCOCc4c3ccnc4C#CC3(C(C)(F)F)CC3)c3cc(F)ccc3n12 [Example 133, 6-((1-(1,1-difluoroethyl)cyclopropyl)ethynyl)-1-(7-fluoro-1-methyl-[1,2,4]triazolo[4,3-a]quinazolin-5-yl)-1,2,3,5-tetrahydropyrido[4,3-e][1,4]oxazepine]
8.01	8.09	Cc1nnc2nc(N3CCOCc4c3ccnc4C#CC(C)(C)C(F)(F)F)c3cc(F)ccc3n12 [Example 134, 1-(7-fluoro-1-methyl-[1,2,4]triazolo[4,3-a]quinazolin-5-yl)-6-(4,4,4-trifluoro-3,3-dimethylbut-1-yn-1-yl)-1,2,3,5-tetrahydropyrido[4,3-e][1,4]oxazepane]
8.26	8.22	Cc1nnc2nc(N3CCOCc4c3ccnc4C#CC3(C(F)F)CC3)c3c(F)cccc3n12 [Example 135, 6-((1-(difluoromethyl)cyclopropyl)ethynyl)-1-(6-fluoro-1-methyl-[1,2,4]triazolo[4,3-a]quinazolin-5-yl)-1,2,3,5-tetrahydropyrido[4,3-e][1,4]oxazepine]
7.96	7.86	Cc1nnc2nc(N3CCOCc4c3ccnc4C#CC(C)(C)C(F)F)c3c(F)cccc3n12 [Example 136, 6-(4,4-difluoro-3,3-dimethylbut-1-yn-1-yl)-1-(6-fluoro-1-methyl-[1,2,4]triazolo[4,3-a]quinazolin-5-yl)-1,2,3,5-tetrahydropyrido[4,3-e][1,4]oxazepine]
7.75	6.98	Cc1nnc2nc(N3CCOCc4c3ccnc4C#CC(C)(C)NC(=O)C3(C(F)(F)F)CC3)c3c(F)cccc3n12 [Example 137, N-(4-(1-(6-fluoro-1-methyl-[1,2,4]triazolo[4,3-a]quinazolin-5-yl)-1,2,3,5-tetrahydropyrido[4,3-e][1,4]oxazepin-6-yl)-2-methylbut-3-yn-2-yl)-1-(trifluoromethyl)cyclopropane-1-carboxamide]
